According to patent US8236769B2, “Agent for improving insulin resistance” (Morinaga Milk Industry Co., Ltd., priority 2005, dated 2012):

What was measured:
[1] = test system: ZDF (Zucker Diabetic Fatty) rats; settings: serum
Method: 3-O-β-D-glucopyranosyl-4-methylergost-7-en-3-ol produced in Preparation Example 1 was dissolved in DMSO, and the concentration was adjusted to 15 μg/ml with distilled water to thereby prepare Test Sample. In this case, the final DMSO concentration was adjusted to 0.2%. Furthermore, a solution without the test samples was prepared as a negative sample.
6-week-old male ZDF rats (purchased from Charles River Laboratories, Inc., USA) were preliminarily fed with a high-fat diet (Research Diet, Inc.) for 1 month. These rats were divided into groups, each consisting of 6 rats. Each of the groups of rats was orally administered with 1 ml per 400 g of body weight (37.5 μg/kg of body weight) of the Test Sample or the negative sample once a day everyday with a sonde. On the 45th day from the initiation of the administration of the samples, blood was collected from the rats under fasting, and the level of the free fatty acid in serum were measured by using NEFA C-test Wako (Wako Pure Chemical Industries, Ltd.).

[2] = WO 2006/035525; cited from earlier work
[3] = test system: ZDF (Zucker Diabetic Fatty) rats; test: Insulin tolerance test in ZDF rats; type: in vivo, rat; settings: 35th day; 37.5 μg/kg orally once a day; human insulin 10 U/Kg i.p. after 4 hours fasting; 15 to 60 minutes after insulin; FIG. 1
Method: In Example 3, the same Test Sample and the negative sample as those prepared in Examples 1 and 2 were used.
The semice were divided into groups, each consisting of 6 rats. […] In the present example, the insulin tolerance test was performed in such a manner that: the rats were fasted for 4 hours, and were then intraperitoneally administered with 10 U/Kg of body weight of a human insulin (Eli Lily and Company); and changes with time in blood glucose level were measured from the initiation of the administration of the insulin to after 60 minutes later.

TNF-α = test: Production quantity of TNF-α of epididymal adipose tissue from treated ZDF rats (culture supernatant, ELISA); type: in vivo, rat; settings: 45th day
Method: (§1) In Example 2, the same Test Sample and the negative sample as those prepared in Example 1 were used.
(§2) After 1 hour of the culture, culture supernatants were collected, and concentrations of TNF-α and MCP-1 in the culture supernatants were measured by ELISA method (Biosource).

MCP-1 = test: Production quantity of MCP-1 of epididymal adipose tissue from treated ZDF rats (culture supernatant, ELISA); type: in vivo, rat; settings: 45th day
Method: as §1, §2

[4] = adipose tissue, Tukey-Kramer's test
[5] = culture supernatant of epididymal fat tissue after 1 hour at 37° C., 37.5 μg/kg orally once a day

CC1C(O[C@@H]2O[C@H](CO)[C@@H](O)[C@H](O)[C@H]2O)CC[C@@]2(C)C1CC=C1[C@@H]3CC[C@H]([C@H](C)CC[C@H](C)C(C)C)[C@@]3(C)CC[C@@H]12 (stereo partly drawn) [Test Sample, 3-O-β-D-glucopyranosyl-4-methylergost-7-en-3-ol]
free fatty acid levels compared with the group administered with the negative sample ([1]; 45th day, 37.5 μg/kg orally once a day, decreased to this % of negative sample group): 53%
Free fatty acid ([1]; fasting, 45th day of administration, 37.5 μg/kg of body weight orally once a day, male ZDF rats on high-fat diet): 1.948 ± 0.648 mEq/l
effect on hemoglobin Alc level [2]: decreasing hemoglobin Alc level
effect on hyperglycemia [2]: improving hyperglycemia
blood glucose level in insulin tolerance test compared with negative sample group [3]: lower blood glucose levels
inhibitory effect on the production of TNF-α compared with negative sample group (TNF-α; [4]): significant inhibitory effects
TNF-α (TNF-α; [5]): 117.4 ± 47.9 pg/mL
inhibitory effect on the production of MCP-1 compared with negative sample group (MCP-1; [4]): significant inhibitory effects
MCP-1 (MCP-1; [5]): 23.3 ± 3.6 pg/mL
